Measured values reported in PubChem BioAssay (NCI).
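Tested at 5 concentrations; 48 h exposure; 96-well plates; endpoints linearly interpolated, else capped at highest concentration. GI50 marks 50% less growth. TGI: total growth inhibition.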

Columns and labels:
Experiment in all cases: growth of human tumour cells (NCI), 48 h
MALME-3M melanoma = system: MALME-3M melanoma
CCRF-CEM leukemia = system: CCRF-CEM leukemia
HT29 colon = system: HT29 colon
HOP-92 NSCLC = system: HOP-92 NSCLC
HOP-62 NSCLC = system: HOP-62 NSCLC
NCI-H23 lung = system: NCI-H23 lung
SNB-75 CNS = system: SNB-75 CNS
UACC-62 melanoma = system: UACC-62 melanoma
HCC-2998 colon = system: HCC-2998 colon
SK-MEL-5 melanoma = system: SK-MEL-5 melanoma
K-562 leukemia = system: K-562 leukemia
SF-539 CNS = system: SF-539 CNS
KM12 colon = system: KM12 colon
HS 578T breast = system: HS 578T breast
U251 CNS = system: U251 CNS
SK-MEL-28 melanoma = system: SK-MEL-28 melanoma
SNB-19 CNS = system: SNB-19 CNS
SW-620 colon = system: SW-620 colon
T-47D breast = system: T-47D breast
NCI-H460 lung = system: NCI-H460 lung
IGROV1 ovarian = system: IGROV1 ovarian
A498 renal = system: A498 renal
COLO 205 colon = system: COLO 205 colon
HL-60(TB) leukemia = system: HL-60(TB) leukemia
UO-31 renal = system: UO-31 renal
SK-MEL-2 melanoma = system: SK-MEL-2 melanoma
HCT-116 colon = system: HCT-116 colon
SN12C renal = system: SN12C renal
CAKI-1 renal = system: CAKI-1 renal
RPMI-8226 leukemia = system: RPMI-8226 leukemia
MDA-MB-231 breast = system: MDA-MB-231 breast
SF-295 CNS = system: SF-295 CNS
MDA-MB-435 = system: MDA-MB-435
786-0 renal = system: 786-0 renal
EKVX NSCLC = system: EKVX NSCLC
SF-268 CNS = system: SF-268 CNS
NCI/ADR-RES ovarian = system: NCI/ADR-RES ovarian
NCI-H522 lung = system: NCI-H522 lung
HCT-15 colon = system: HCT-15 colon
NCI-H226 lung = system: NCI-H226 lung
PC-3 prostate = system: PC-3 prostate
OVCAR-4 ovarian = system: OVCAR-4 ovarian
LOX IMVI melanoma = system: LOX IMVI melanoma
UACC-257 melanoma = system: UACC-257 melanoma
MOLT-4 leukemia = system: MOLT-4 leukemia
MCF7 breast = system: MCF7 breast
DU-145 prostate = system: DU-145 prostate
OVCAR-3 ovarian = system: OVCAR-3 ovarian
RXF 393 renal = system: RXF 393 renal
OVCAR-5 ovarian = system: OVCAR-5 ovarian
A549 NSCLC = system: A549 NSCLC
ACHN renal = system: ACHN renal
SK-OV-3 ovarian = system: SK-OV-3 ovarian
BT-549 breast = system: BT-549 breast

SMILES: NC(N)=N/N=C\c1ccc(OCc2ccccc2)cc1
- GI50 (MALME-3M melanoma): 2.32 µM
- TGI (MALME-3M melanoma): 6.03 µM
- GI50 (CCRF-CEM leukemia): 2.73 µM
- TGI (CCRF-CEM leukemia): 10 µM
- GI50 (HT29 colon): 1.87 µM
- TGI (HT29 colon): 3.87 µM
- GI50 (HOP-92 NSCLC): 1.05 µM
- TGI (HOP-92 NSCLC): 4.24 µM
- GI50 (HOP-62 NSCLC): 2.42 µM
- TGI (HOP-62 NSCLC): 10.5 µM
- GI50 (NCI-H23 lung): 9.84 µM
- TGI (NCI-H23 lung): 24.6 µM
- GI50 (SNB-75 CNS): 1.64 µM
- TGI (SNB-75 CNS): 4.7 µM
- GI50 (UACC-62 melanoma): 1.57 µM
- TGI (UACC-62 melanoma): 3.4 µM
- GI50 (HCC-2998 colon): 1.67 µM
- TGI (HCC-2998 colon): 3.2 µM
- GI50 (SK-MEL-5 melanoma): 1.62 µM
- TGI (SK-MEL-5 melanoma): 3.24 µM
- GI50 (K-562 leukemia): 2.65 µM
- TGI (K-562 leukemia): 5.91 µM
- GI50 (SF-539 CNS): 1.7 µM
- TGI (SF-539 CNS): 4.06 µM
- GI50 (KM12 colon): 1.63 µM
- TGI (KM12 colon): 3.1 µM
- GI50 (HS 578T breast): 1.75 µM
- TGI (HS 578T breast): 4.81 µM
- GI50 (U251 CNS): 1.62 µM
- TGI (U251 CNS): 3.17 µM
- GI50 (SK-MEL-28 melanoma): 1.76 µM
- TGI (SK-MEL-28 melanoma): 3.68 µM
- GI50 (SNB-19 CNS): 3.08 µM
- TGI (SNB-19 CNS): 15.4 µM
- GI50 (SW-620 colon): 1.64 µM
- TGI (SW-620 colon): 3.3 µM
- GI50 (T-47D breast): 1.45 µM
- TGI (T-47D breast): 4.22 µM
- GI50 (NCI-H460 lung): 1.77 µM
- TGI (NCI-H460 lung): 3.47 µM
- GI50 (IGROV1 ovarian): 3.42 µM
- TGI (IGROV1 ovarian): 18.3 µM
- GI50 (A498 renal): 2.31 µM
- TGI (A498 renal): 9.7 µM
- GI50 (COLO 205 colon): 1.74 µM
- TGI (COLO 205 colon): 3.44 µM
- GI50 (HL-60(TB) leukemia): 2.56 µM
- TGI (HL-60(TB) leukemia): 4.87 µM
- GI50 (UO-31 renal): 2.7 µM
- TGI (UO-31 renal): 17.5 µM
- GI50 (SK-MEL-2 melanoma): 1.74 µM
- TGI (SK-MEL-2 melanoma): 3.38 µM
- GI50 (HCT-116 colon): 1.51 µM
- TGI (HCT-116 colon): 3.14 µM
- GI50 (SN12C renal): 1.97 µM
- TGI (SN12C renal): 5.35 µM
- GI50 (CAKI-1 renal): 3.13 µM
- TGI (CAKI-1 renal): 13.4 µM
- GI50 (RPMI-8226 leukemia): 2.02 µM
- TGI (RPMI-8226 leukemia): 5.01 µM
- GI50 (MDA-MB-231 breast): 1.96 µM
- TGI (MDA-MB-231 breast): 5.12 µM
- GI50 (SF-295 CNS): 2.25 µM
- TGI (SF-295 CNS): 7.02 µM
- GI50 (MDA-MB-435): 1.68 µM
- TGI (MDA-MB-435): 4.1 µM
- GI50 (786-0 renal): 1.66 µM
- TGI (786-0 renal): 3.17 µM
- GI50 (EKVX NSCLC): 7.37 µM
- TGI (EKVX NSCLC): 24.2 µM
- GI50 (SF-268 CNS): 3.47 µM
- TGI (SF-268 CNS): 17.4 µM
- GI50 (NCI/ADR-RES ovarian): 1.82 µM
- TGI (NCI/ADR-RES ovarian): 4.93 µM
- GI50 (NCI-H522 lung): 1.52 µM
- TGI (NCI-H522 lung): 3.15 µM
- GI50 (HCT-15 colon): 1.97 µM
- TGI (HCT-15 colon): 5.37 µM
- GI50 (NCI-H226 lung): 4.87 µM
- TGI (NCI-H226 lung): 24.2 µM
- GI50 (PC-3 prostate): 2.41 µM
- TGI (PC-3 prostate): 10.6 µM
- GI50 (OVCAR-4 ovarian): 2.63 µM
- TGI (OVCAR-4 ovarian): 13.8 µM
- GI50 (LOX IMVI melanoma): 1.53 µM
- TGI (LOX IMVI melanoma): 2.96 µM
- GI50 (UACC-257 melanoma): 1.61 µM
- TGI (UACC-257 melanoma): 3.31 µM
- GI50 (MOLT-4 leukemia): 3.36 µM
- TGI (MOLT-4 leukemia): 9.36 µM
- GI50 (MCF7 breast): 1.37 µM
- TGI (MCF7 breast): 2.91 µM
- GI50 (DU-145 prostate): 2.71 µM
- TGI (DU-145 prostate): 8.45 µM
- GI50 (OVCAR-3 ovarian): 2.2 µM
- TGI (OVCAR-3 ovarian): 5.75 µM
- GI50 (RXF 393 renal): 1.79 µM
- TGI (RXF 393 renal): 4.26 µM
- GI50 (OVCAR-5 ovarian): 2.95 µM
- TGI (OVCAR-5 ovarian): 15.5 µM
- GI50 (A549 NSCLC): 3.31 µM
- TGI (A549 NSCLC): 13.2 µM
- GI50 (ACHN renal): 2.64 µM
- TGI (ACHN renal): 8.66 µM
- GI50 (SK-OV-3 ovarian): 3.47 µM
- TGI (SK-OV-3 ovarian): 14.7 µM
- GI50 (BT-549 breast): 10.8 µM
- TGI (BT-549 breast): 23 µM
